{"source": "patent US20200197266A1", "about": "“MICROGELS FOR THE DELIVERY OF COSMETIC ACTIVE ORGANIC SUBSTANCES” (LVMH RECHERCHE, priority 2017, published 2020)", "key": {"[1]": {"conditions": "cited from earlier work"}, "[2]": {"conditions": "cited from earlier work", "remark": "listed apart in the source"}, "[3]": {"assay": "In vitro release of cosmetic active molecules from loaded microgels by a dialysis method", "conditions": "35% ethanol in dialysate medium, pH 6, 25° C.", "experimental": "The study of active molecules release kinetics was carried out by a dialysis method in order to verify that no microgel diffusion occur in dialysate medium (that may also be called “release medium”), and in order to observe the cosmetic active molecule release profile against time.\nFor that, active molecules-loaded microgel particle dispersions (1 mg/mg microgel) were dialyzed against a dialysate medium. Diffusion of the cosmetic active molecule from the loaded-microgel dispersion medium to the dialysate medium is observed, until an equilibrium concentration is reached between both media.\nLoaded-microgel particles comprising an active molecule in an amount of 1 mg/(mg unloaded microgel) were placed inside a dialysis tube and dialyzed in different buffered dialysate media (having different pH, having different temperature, containing a solvent and/or containing a surfactant). The buffered dialysate medium can contain ethanol, citric acid, sodium phosphate dibasic or/and polyoxyethylene monooleate sorbitan (also named Polysorbate 80, Tween® 80 or INCI […]). Active substance concentration in the dialysate medium was determined by UV-Vis.\nThe effect of temperature on the release kinetics of active molecules was investigated with the dialysate method maintaining pH of the dialysate medium constant at 4.5. The in vitro release was studied at two different temperatures: 25° C. […]"}}, "note": "Where two headings read alike, the source gives them in different places."}
{"compound": "CC(C)=CCCC(C)CCO", "note": "(stereo not shown) [Citronellol, 3,7-dimethyloct-6-en-1-ol]", "values": [{"measurement": "Solubility in water", "setting": "[1]; at 25° C.", "value": 200, "unit": "µg/mL"}, {"measurement": "Solubility in ethanol", "setting": "[1]", "value": "very soluble in ethanol"}]}
{"compound": "Hyaluronic acid", "values": [{"measurement": "Solubility in water", "setting": "[1]", "value": "soluble in water"}, {"measurement": "pKa", "setting": "[2]", "value": 3}]}
{"compound": "CCCCCCOC(=O)c1ccccc1C(=O)c1ccc(N(CC)CC)cc1O", "note": "[Uvinul-A, hexyl 2-[4-(diethylamino)-2-hydroxybenzoyl]benzoate]", "values": [{"measurement": "Solubility in ethanol", "setting": "[1]", "value": "soluble in ethanol"}, {"measurement": "Solubility in water", "setting": "[1]", "value": "insoluble in water"}]}
{"compound": "O=C(O)c1ccccc1O", "note": "[Salicylic acid, 2-Hydroxybenzoic acid, reference compound]", "values": [{"measurement": "Solubility in ethanol", "setting": "[1]", "value": "soluble in ethanol"}]}
{"compound": "CCCCC(CC)COC(=O)c1ccccc1O", "note": "(stereo not shown) [Escalol, 2-ethylhexyl salicylate]", "values": [{"measurement": "Solubility in ethanol", "setting": "[1]", "value": "soluble in ethanol"}, {"measurement": "Solubility in water", "setting": "[1]", "value": "slighty soluble in water"}, {"measurement": "Incubation time in which 100% is released", "setting": "[3]", "value": "≤ 6", "unit": "h"}]}
